This is an account of results in ChEMBL document CHEMBL4513160, “CO-ADD screening of MMV (CH) - Small Polar Library”.

In assay [1] the test system is Pseudomonas aeruginosa. The experiment in a line: microbe, parasite or virus in culture. The following applies: ATCC 27853, 18 h, ASSAY_TEST Inhibition of Bacterial Growth, detection method Absorption (OD600), MEDIA CAMHB, plate type 384well, NBS, CORNING #3640.
Description: Antibacterial activity against Pseudomonas aeruginosa ATCC 27853 (CO-ADD:GN_042); MIC in CAMBH media using NBS plates, by OD(600)
Assay [2] deals with Pseudomonas aeruginosa. Put plainly: Antibacterial activity against Pseudomonas aeruginosa PAO397 [PAO1 d(mexAB-oprM) d(mexCD-oprJ) d(mexEF-oprN) d(mexJKL) d(mexXY) d(opmH)] (CO-ADD:GN_211); MIC in CAMBH media using NBS plates, by OD(600). The class given is functional. As to conditions: ASSAY_TEST Inhibition of Bacterial Growth, detection method Absorption (OD600), MEDIA CAMHB, plate type 384well, CORNING #3640, time 18 hr.

For another assay, the system named is Acinetobacter baumannii. Put plainly: microbe, parasite or virus in culture. The following applies: ATCC 19606, 18 h, ASSAY_TEST Inhibition of Bacterial Growth, detection method Absorption (OD600), MEDIA CAMHB, plate type 384well, NBS, CORNING #3640.

Values after ≈ are worked out from the molar mass of the structure shown.

Description for Acinetobacter baumannii: Antibacterial activity against Acinetobacter baumannii ATCC 19606 (CO-ADD:GN_034); MIC in CAMBH media using NBS plates, by OD600

For `Cc1ncc(C)c(N)n1`, the values for the MIC against Pseudomonas aeruginosa [1], against Pseudomonas aeruginosa [2] and against Acinetobacter baumannii were 300 µM (≈ 36.9 µg/mL), more than 300 µM and more than 300 µM, respectively.
Regarding `C[C@@]1(N)C[C@H]1c1ccccc1`, the MIC against Pseudomonas aeruginosa [1] was more than 300 µM; against Pseudomonas aeruginosa [2], 200 µM (≈ 29.4 µg/mL); against Acinetobacter baumannii, more than 300 µM.
Consider `N#Cc1cc(N2CCC[C@@H]2CO)nc2ccccc12`, for which the MIC in the assay with Pseudomonas aeruginosa [1], with Pseudomonas aeruginosa [2] and with Acinetobacter baumannii was more than 300 µM in each case.
As to `CN1CCCN(c2nc3ccccc3cc2CO)CC1`, the MIC against Pseudomonas aeruginosa [1], in the assay on Pseudomonas aeruginosa [2] and against Acinetobacter baumannii was more than 300 µM in each case.
Regarding `C[C@@H](N)C(=O)NCc1cc2cc(Cl)ccc2[nH]1`, the figures for the MIC against Pseudomonas aeruginosa [1], in the assay on Pseudomonas aeruginosa [2] and with Acinetobacter baumannii were more than 300 µM, 300 µM (≈ 75.5 µg/mL) and more than 300 µM, respectively.
Take `CC(CN)N(C)C(=O)Cc1cccc2ccccc12` (stereo not given): the MIC against Pseudomonas aeruginosa [1] and against Acinetobacter baumannii was more than 300 µM in each case.
Regarding `O=C(NCc1cccs1)c1cnsn1`, the MIC against Pseudomonas aeruginosa [1], against Pseudomonas aeruginosa [2] and with Acinetobacter baumannii was more than 300 µM each time.
For `NCCNC(=O)c1ccc(-c2ccc(Cl)cc2)s1`, the MIC was 300 µM (≈ 84.2 µg/mL) in the assay on Pseudomonas aeruginosa [1], 90 µM (≈ 25.3 µg/mL) with Pseudomonas aeruginosa [2] and more than 300 µM in the assay on Acinetobacter baumannii.
The matching figures for `CCOc1cc(Cl)ccc1CN`: more than 300 µM, more than 300 µM and more than 300 µM.
On to `N#Cc1ncn(CC(=O)c2ccc3c(c2)CCO3)n1`, for which the MIC against Pseudomonas aeruginosa [1], against Pseudomonas aeruginosa [2] and in the assay with Acinetobacter baumannii was more than 300 µM throughout.
Regarding `CC(C)(N)CN1CCN(c2cccc(Cl)c2)CC1`, the MIC in the assay with Pseudomonas aeruginosa [1], in the assay on Pseudomonas aeruginosa [2] and against Acinetobacter baumannii was more than 300 µM each time.
On to `COc1ccc(-c2ccnc(CO)c2)c(OC)c1`, for which the MIC against Pseudomonas aeruginosa [1], against Pseudomonas aeruginosa [2] and in the assay with Acinetobacter baumannii was more than 300 µM throughout.
On to `CNC(=O)Cn1cc(-c2cccc3cnccc23)cn1`, for which the MIC in the assay on Pseudomonas aeruginosa [1], in the assay with Pseudomonas aeruginosa [2] and against Acinetobacter baumannii was more than 300 µM each time.
Take `CN(C)C(=O)CCNc1ccnc2ccc(Cl)cc12`: the MIC with Pseudomonas aeruginosa [1], in the assay on Pseudomonas aeruginosa [2] and against Acinetobacter baumannii was more than 300 µM throughout.
On to `OC1(CNCc2ccc(Br)c3cccnc23)CCOC1` (stereo not given), for which the MIC against Pseudomonas aeruginosa [1], against Pseudomonas aeruginosa [2] and against Acinetobacter baumannii was more than 300 µM throughout.
As to `CC(C)CNC(=O)CSc1n[nH]c(-c2ccccn2)n1`, the MIC with Pseudomonas aeruginosa [1] was more than 300 µM; against Pseudomonas aeruginosa [2], 60 µM (≈ 17.5 µg/mL); in the assay with Acinetobacter baumannii, more than 300 µM.
For `NCc1cnn(-c2cccc(Cl)c2)c1`, the MIC against Pseudomonas aeruginosa [1], against Pseudomonas aeruginosa [2] and with Acinetobacter baumannii was more than 300 µM throughout.
Turning to `CC(C)c1ccoc1C(=O)N(C)c1cc(C#N)ccn1`, the MIC against Pseudomonas aeruginosa [1], in the assay on Pseudomonas aeruginosa [2] and against Acinetobacter baumannii was more than 300 µM in each case.
Regarding `Cc1cc(C)c(C#N)c(N2C[C@H](C3CC3)[C@@H](N)C2)n1`, the MIC against Pseudomonas aeruginosa [1], with Pseudomonas aeruginosa [2] and in the assay with Acinetobacter baumannii was more than 300 µM throughout.
For the compound `CCNCCOc1cccc(OCC)c1`, the MIC with Pseudomonas aeruginosa [1], in the assay with Pseudomonas aeruginosa [2] and in the assay with Acinetobacter baumannii was more than 300 µM throughout.
Take `CNC(CO)c1cccc(Cl)c1Cl` (stereo not given): the MIC against Pseudomonas aeruginosa [1], against Pseudomonas aeruginosa [2] and in the assay with Acinetobacter baumannii was more than 300 µM in each case.
Consider `Cc1ccc(C(=O)NCc2ccnc(N(C)C)c2)s1`, for which the MIC in the assay on Pseudomonas aeruginosa [1], against Pseudomonas aeruginosa [2] and in the assay with Acinetobacter baumannii was more than 300 µM throughout.
Consider `CCOc1ncc(C(=O)NCC(C)(O)C(C)C)cc1Cl` (stereo not given), for which the MIC in the assay with Pseudomonas aeruginosa [1], against Pseudomonas aeruginosa [2] and against Acinetobacter baumannii was more than 300 µM each time.
Turning to `CNC(=O)C1CCN(C(=O)Nc2ccc(C)c(Cl)c2)C1` (stereo not given), the MIC in the assay on Pseudomonas aeruginosa [1] was more than 300 µM; in the assay on Pseudomonas aeruginosa [2] it was 90 µM (≈ 26.6 µg/mL); in the assay on Acinetobacter baumannii, more than 300 µM.
Regarding `OCC1(O)CCCN(c2ccnc3ccc(Cl)cc23)C1` (stereo not given), the MIC in the assay with Pseudomonas aeruginosa [1], in the assay on Pseudomonas aeruginosa [2] and with Acinetobacter baumannii was more than 300 µM each time.
Consider `NCC(=O)N1CCCC(CCc2ccc(F)c(F)c2)C1` (stereo not given), for which the MIC in the assay on Pseudomonas aeruginosa [1], in the assay with Pseudomonas aeruginosa [2] and with Acinetobacter baumannii was more than 300 µM each time.
In the case of `CCCSc1ccc(NC(=O)NCCN)cc1`, the MIC against Pseudomonas aeruginosa [1], in the assay with Pseudomonas aeruginosa [2] and in the assay on Acinetobacter baumannii was more than 300 µM throughout.
As to `OCc1ccncc1NCc1coc2ccccc12`, the MIC in the assay on Pseudomonas aeruginosa [1], against Pseudomonas aeruginosa [2] and in the assay with Acinetobacter baumannii was more than 300 µM each time.
With `COCC(O)CNc1c(C)c(C)nc2ccccc12` (stereo not given), the MIC in the assay on Pseudomonas aeruginosa [1], in the assay with Pseudomonas aeruginosa [2] and in the assay with Acinetobacter baumannii was more than 300 µM in each case.
Turning to `O=S1(=O)CCC(CNc2ccnc3ccc(Cl)cc23)C1` (stereo not given), the MIC against Pseudomonas aeruginosa [1], in the assay on Pseudomonas aeruginosa [2] and in the assay with Acinetobacter baumannii was more than 300 µM throughout.
Regarding `NCC(=O)N1CCCC(CCc2ccc(F)cc2)C1` (stereo not given), the MIC in the assay with Pseudomonas aeruginosa [1], against Pseudomonas aeruginosa [2] and against Acinetobacter baumannii was more than 300 µM each time.
Regarding `COc1cccc(-c2ncc(CN)s2)c1`, the MIC against Pseudomonas aeruginosa [1], with Pseudomonas aeruginosa [2] and against Acinetobacter baumannii was more than 300 µM throughout.
As for `NS(=O)(=O)NCCCc1ccc(Br)cc1F`, the MIC against Pseudomonas aeruginosa [1], in the assay on Pseudomonas aeruginosa [2] and against Acinetobacter baumannii was more than 300 µM throughout.
`NCC(=O)N(Cc1cccs1)Cc1cccs1`: the MIC in the assay on Pseudomonas aeruginosa [1], with Pseudomonas aeruginosa [2] and against Acinetobacter baumannii was more than 300 µM each time.
Turning to `COc1ccc(NC(=O)c2ccc(S(N)(=O)=O)o2)cc1`, the MIC with Pseudomonas aeruginosa [1] is more than 300 µM; against Pseudomonas aeruginosa [2], 200 µM (≈ 59.3 µg/mL); in the assay with Acinetobacter baumannii it was more than 300 µM.
For `COc1ccc2c(c1)CCCC(=O)N2`, the MIC in the assay with Pseudomonas aeruginosa [1], against Pseudomonas aeruginosa [2] and in the assay with Acinetobacter baumannii was more than 300 µM throughout.
On to `CCc1nnc(NC(=O)c2cc(OC)ccn2)s1`, for which the MIC against Pseudomonas aeruginosa [1], against Pseudomonas aeruginosa [2] and in the assay on Acinetobacter baumannii was more than 300 µM in each case.
On to `CN(Cc1ccc(Cl)cc1)C(=O)C1CCNC1` (stereo not given), for which the MIC in the assay with Pseudomonas aeruginosa [1], against Pseudomonas aeruginosa [2] and against Acinetobacter baumannii was more than 300 µM throughout.
`Nc1nc(-c2ccc3c(c2)CCCC(=O)N3)cs1`: the MIC with Pseudomonas aeruginosa [1], in the assay with Pseudomonas aeruginosa [2] and in the assay on Acinetobacter baumannii was more than 300 µM each time.
As to `CC(Nc1ccc(C#N)cn1)c1ccc2c(c1)OCO2` (stereo not given), the MIC in the assay on Pseudomonas aeruginosa [1], against Pseudomonas aeruginosa [2] and against Acinetobacter baumannii was more than 300 µM throughout.
`NCCC(=O)N1CCCC(CCc2ccc(F)cc2)C1` (stereo not given): the MIC in the assay with Pseudomonas aeruginosa [1], against Pseudomonas aeruginosa [2] and in the assay on Acinetobacter baumannii was more than 300 µM in each case.
As for `CCCOc1ccccc1C(=O)NC1CCNC1` (stereo not given), the MIC against Pseudomonas aeruginosa [1] was more than 300 µM; in the assay with Pseudomonas aeruginosa [2] it was 25 µM (≈ 6.21 µg/mL); against Acinetobacter baumannii it was more than 300 µM.
For the compound `CCCOc1ccc(NS(=O)(=O)N(C)C)cc1Cl`, the MIC against Pseudomonas aeruginosa [1], against Pseudomonas aeruginosa [2] and against Acinetobacter baumannii was more than 300 µM throughout.
Regarding `O=C(Nc1ccnc(CO)c1)c1ccc(F)cc1I`, the MIC in the assay on Pseudomonas aeruginosa [1], in the assay on Pseudomonas aeruginosa [2] and in the assay on Acinetobacter baumannii was more than 300 µM in each case.
Consider `Cc1nnc(SCC(=O)NCCCc2csc(N)n2)s1`, for which the MIC in the assay with Pseudomonas aeruginosa [1], against Pseudomonas aeruginosa [2] and against Acinetobacter baumannii was more than 300 µM in each case.
`CCCc1cc(C(=O)NCCc2nc(C)c[nH]2)[nH]n1`: the results for the MIC in the assay with Pseudomonas aeruginosa [1], in the assay with Pseudomonas aeruginosa [2] and with Acinetobacter baumannii were more than 300 µM, 300 µM (≈ 78.4 µg/mL) and more than 300 µM, respectively.
For the compound `NCC1CCOc2ccccc21` (stereo not given), the MIC in the assay with Pseudomonas aeruginosa [1], in the assay with Pseudomonas aeruginosa [2] and with Acinetobacter baumannii was more than 300 µM in each case.
Consider `COCC(C)NCc1ccccc1CN1CCCC1=O` (stereo not given), for which the MIC in the assay with Pseudomonas aeruginosa [1], against Pseudomonas aeruginosa [2] and in the assay on Acinetobacter baumannii was more than 300 µM each time.
For `CC(C)NC(=O)NCC1(N2CCOCC2)CCSC1` (stereo not given), the MIC in the assay on Pseudomonas aeruginosa [1], in the assay on Pseudomonas aeruginosa [2] and in the assay on Acinetobacter baumannii was more than 300 µM throughout.
As for `NC(=O)C1CCN(c2ccnc3cc(Br)ccc23)C1` (stereo not given), the MIC with Pseudomonas aeruginosa [1], in the assay on Pseudomonas aeruginosa [2] and against Acinetobacter baumannii was more than 300 µM in each case.
`Cc1cc(C(=O)NC2CCC(=O)NC2)cc(Cl)c1Br` (stereo not given): the MIC in the assay on Pseudomonas aeruginosa [1], with Pseudomonas aeruginosa [2] and against Acinetobacter baumannii was more than 300 µM in each case.
With `CCCn1cnnc1CNC`, the MIC in the assay with Pseudomonas aeruginosa [1], against Pseudomonas aeruginosa [2] and against Acinetobacter baumannii was more than 300 µM each time.
As for `CN(CCOc1ccc(Cl)cc1)C(=O)C(C)(C)CN`, the MIC against Pseudomonas aeruginosa [1], in the assay with Pseudomonas aeruginosa [2] and against Acinetobacter baumannii was more than 300 µM throughout.
For `NCC(=O)N1CCCC(CCc2ccc(F)cc2F)C1` (stereo not given), the MIC in the assay with Pseudomonas aeruginosa [1], with Pseudomonas aeruginosa [2] and in the assay with Acinetobacter baumannii was more than 300 µM in each case.
In the case of `Cc1cc(Br)cc(C(=O)NCc2nccc(N)n2)c1`, the MIC in the assay with Pseudomonas aeruginosa [1], against Pseudomonas aeruginosa [2] and against Acinetobacter baumannii was more than 300 µM in each case.
As to `OCCCNc1ccnc2ccc(Cl)cc12`, the MIC with Pseudomonas aeruginosa [1], with Pseudomonas aeruginosa [2] and against Acinetobacter baumannii was more than 300 µM throughout.
As to `NC1CCN(c2ccccc2F)CC1`, the MIC with Pseudomonas aeruginosa [1], with Pseudomonas aeruginosa [2] and against Acinetobacter baumannii was more than 300 µM each time.
For the compound `O=C1C=CC(=O)N1Cc1ccc(Cl)cc1`, the MIC with Pseudomonas aeruginosa [1], in the assay with Pseudomonas aeruginosa [2] and in the assay on Acinetobacter baumannii was more than 300 µM in each case.
`Cn1cc(CC(=O)Nc2ccc(I)cn2)cn1`: the MIC with Pseudomonas aeruginosa [1], against Pseudomonas aeruginosa [2] and against Acinetobacter baumannii was more than 300 µM each time.
Regarding `O=C(Nc1ccncc1)c1coc(Br)c1`, the MIC against Pseudomonas aeruginosa [1], in the assay on Pseudomonas aeruginosa [2] and against Acinetobacter baumannii was more than 300 µM each time.
Regarding `c1cc(CNc2ncnc3[nH]ncc23)c2c(c1)OCO2`, the MIC against Pseudomonas aeruginosa [1], in the assay with Pseudomonas aeruginosa [2] and against Acinetobacter baumannii was more than 300 µM each time.
In the case of `Brc1ccc2c(c1)OCCNC2`, the MIC with Pseudomonas aeruginosa [1], with Pseudomonas aeruginosa [2] and with Acinetobacter baumannii was more than 300 µM in each case.
